Data set [1] has as its system S. Typhimurium ATCC 14028. The data set is described as follows: Monospecies bacterial biofilm inhibition, static peg assay. It is filed as cell-based, Salmonella enterica serovar Typhimurium. The settings on record: Salmonella enterica, S. Typhimurium ATCC 14028, 25°C. The method, then:
(§1) A static peg assay, described previously ([27], [74]), was used for bacterial biofilm formation. The Calgary biofilm device consists of a platform carrying 96 polystyrene pegs (Nunc no. 445497) that fits as a microtiter plate lid, with 1 peg hanging into each microtiter plate well (Nunc no. 269789). Twofold serial dilutions of the compounds (dissolved in 100% dimethyl sulfoxide [DMSO] or ethanol) in 100 μl liquid broth (TSB diluted 1/20) per well were prepared in the microtiter plate in duplicate or triplicate with a maximum concentration of 1,600 μM and a minimum concentration of 0.8 μM. Subsequently, an overnight culture of S. Typhimurium ATCC 14028, P. aeruginosa PA14, E. coli TG1, S. epidermidis, S. aureus SH1000, or S. aureus ATCC 6538 (all grown in LB) was diluted 1:100 into TSB diluted 1/20 (or TSB for S. epidermidis, S. aureus SH1000, and S. aureus ATCC 6538), whereas overnight cultures of S. liquefaciens MG44 and B. cepacia LMG1222T were diluted 1:50 into TSB diluted 1/20. P. gingivalis ATCC 33277 cultures were diluted in TSB diluted 1/20 to have a final concentration of 1 × 10^8 cells/ml. Next, 100 μl was added to each well of the microtiter plate, resulting in a total volume of 200 μl medium per well (final concentration range of compounds, 800 μM [2% DMSO or ethanol] to 0.4 μM [0.001% DMSO or ethanol]). In the next step, the pegged lid was placed on the microtiter plate and the plate was incubated for 24 h or 48 h at 25°C or 37°C without shaking. At 37°C, the plates were placed in a sealed container with wet towels on the bottom to prevent evaporation of the growth medium. Biofilms of P. gingivalis ATCC 33277 were grown anaerobically at 37°C for 72 h. During this incubation period, biofilms were formed on the surface of the pegs. After incubation, the optical density at 600 nm (OD600) for the planktonic cells in the microtiter plate was measured using a Synergy MX multimode reader (BioTek, Winooski, VT). This gives a first indication of the effect of the compounds on planktonic growth. For quantification of biofilm formation, the pegs were washed once in 200 μl PBS. The remaining attached bacteria were stained for 30 min with 200 μl 0.1% (wt/vol) crystal violet in an isopropanol-methanol-PBS solution (1:1:18, vol/vol). Excess stain was rinsed off by placing the pegs in a 96-well plate filled with 200 μl distilled water per well. After air drying of the pegs (30 min), the dye bound to the adherent biofilm was extracted with 30% glacial acetic acid (200 μl per well of a 96-well plate). The optical density at 570 nm (OD570) of each well was measured using a Synergy MX multimode reader (BioTek, Winooski, VT). The concentration of each compound needed to inhibit biofilm formation by 50% (BIC50) and the concentration of each compound needed to inhibit planktonic growth by 50% (IC50) were determined from the concentration gradient by using nonlinear curve fitting (GraphPad Prism software, version 5; GraphPad Software, Inc., La Jolla, CA). In the same assay, the effect on planktonic growth was evaluated. The activity was considered biofilm specific if the BIC50 was at least two times lower than the IC50. Data represent the means from at least 3 technical repeats with the corresponding 95% confidence intervals (provided in the supplemental material).

Another data set relates to B. cepacia LMG1222T. The data set is described as above. Type of data set: cell-based, Burkholderia cepacia. As to conditions: Burkholderia cepacia, 25°C. The method, then: as §1
The next data set relates to S. epidermidis. The description is as above. It is filed as cell-based, Staphylococcus epidermidis. The settings on record: Staphylococcus epidermidis, 37°C. On the procedure: as §1
The test system of data set [2] is osteoblasts (OB). The data set is described as follows: Mammalian cell viability assay, trypan blue staining. As to conditions: 12.5 μM, 6 days of exposure. Type of data set: cell-based. On the procedure: The viability of two human primary cell types, namely, osteoblasts (OB) and bone marrow-derived mesenchymal stem cells (MSC), was tested according to the ISO 10993-5 standard, as previously described ([76]). Briefly, cells were seeded in 96-well tissue culture test plates (TPP; Trasadingen, Switzerland) at 5 × 10^3 cells/cm^2 in cell culture medium (advanced Dulbecco modified Eagle's medium [DMEM]) supplemented with 10% serum, 1× GlutaMAX, and 0.05 mg/ml gentamicin and were allowed to attach overnight. On the next day, the cells were exposed to (i) cell culture medium and medium with the corresponding control (0.5% ethanol or DMSO; negative controls), (ii) medium with 0.05% phenol (cytotoxic control), and (iii) medium with compounds (12.5 μM) and incubated for 2 h, 48 h, and 6 days (8 repeats for each condition). At each time point, the numbers of viable and dead cells were determined directly by trypan blue staining and indirectly by measuring metabolic activity with 3-(4,5-dimethylthiazol-2-yl)-2,5-diphenyltetrazolium bromide (MTT) staining.
The medium was removed from the wells, 1/3 trypan blue in DMEM was added to the cells, and the cells were incubated for 3 min, after which the trypan blue was removed and DMEM was added to the wells. In each of four wells, two microscopy fields were counted for viable (transparent) and dead (blue) cells.

The subject of data set [3] is bone marrow-derived mesenchymal stem cells (MSC). The data set is described as follows: Osteogenic differentiation, calcium and DNA assay. The settings on record: 12.5 μM; for calcium deposition of MSC (normalized by DNA): osteogenic medium, versus solvent control. It is filed as cell-based, human. On the procedure: (§2) The effects of the substances on the osteogenic differentiation potential were assessed as previously described ([76]). Only the substances that allowed survival of the cells for more than 3 weeks, which is the time needed for mature osteogenic differentiation, were tested. Briefly, osteoblasts and bone marrow-derived mesenchymal stem cells were cultured in a positive solvent control (osteogenic medium with 0.5% DMSO or ethanol background), a negative control (medium without osteogenic supplements), and treated samples (osteogenic medium, 0.5% DMSO or ethanol background, and 12.5 μM test compound) with four repeats per condition. The cells in the mesenchymal stem cell and osteoblast cultures were harvested after 3 or 5 weeks, respectively, for the calcium and DNA assay.
(§3) The calcium deposition of osteoblasts and mesenchymal stem cells was measured with the calcium CPC LiquiColor test (Stanbio Laboratory, Boerne, TX) as previously described ([76]). Briefly, cell cultures were extracted with 5% trichloroacetic acid (500 μl per sample), o-cresolphthalein complex was added, and the calcium content was determined spectrophotometrically at 550 nm. The DNA content was determined as previously described ([76]). DNA values were used to normalize the calcium content. Four wells per condition were examined, and two samples from each well were taken for each assay.

Data set [4] relates to osteoblasts (OB). The data set is described as follows: Osteogenic differentiation, calcium and DNA assay. The settings on record: 12.5 μM; for calcium deposition of OB (normalized by DNA): osteogenic medium, versus solvent control. It is filed as cell-based, human. On the procedure:
as §2, §3

[5] abbreviates: read-out: IC50 (planktonic growth).

Each structure is given as a SMILES string. Where two headings read alike, the source gives them in different places.

`CCCCCn1c(-c2ccccc2)cnc1N` [Compound 1]: the IC50 was 48.4 µM in data set [1] (read-out: BIC50); ~356 µM in the data set on B. cepacia LMG1222T (read-out: BIC50); > 400 µM with B. cepacia LMG1222T (setting [5]); ~202 µM in the data set with S. epidermidis (read-out: BIC50); ~329 µM in the data set on S. epidermidis (setting [5]).
As to `CCCCCCCCn1c(-c2ccc(Cl)cc2)cnc1N` [Compound 2], the IC50 in data set [1] (read-out: BIC50) was ~5.9 µM; with B. cepacia LMG1222T (read-out: BIC50), 145 µM; in the data set with B. cepacia LMG1222T (setting [5]) it was > 400 µM; in the data set on S. epidermidis (setting [5]) it was ~11.1 µM.
Regarding `CC(C)CNc1ncc(-c2ccc(Cl)cc2)[nH]1` [Compound 3], the IC50 was 2 µM in data set [1] (read-out: BIC50); 88.1 µM in the data set on B. cepacia LMG1222T (read-out: BIC50); > 400 µM with B. cepacia LMG1222T (setting [5]); > 400 µM in the data set on S. epidermidis (read-out: BIC50); 86.2 µM in the data set with S. epidermidis (setting [5]).
As to `CCCCNc1ncc(-c2ccc(Br)cc2)[nH]1` [Compound 4], the IC50 in data set [1] (read-out: BIC50) is 7.1 µM; with B. cepacia LMG1222T (read-out: BIC50) it was 189 µM; in the data set with B. cepacia LMG1222T (setting [5]), > 400 µM; in the data set with S. epidermidis (read-out: BIC50), > 400 µM; with S. epidermidis (setting [5]) it was 54.4 µM.
`Clc1ccc(-c2cnc(NC3CCCC3)[nH]2)cc1` [Compound 5]: the IC50 in data set [1] (read-out: BIC50) is 4.4 µM; with B. cepacia LMG1222T (read-out: BIC50), 331 µM; with B. cepacia LMG1222T (setting [5]), > 400 µM; in the data set on S. epidermidis (read-out: BIC50), > 400 µM; with S. epidermidis (setting [5]), 39.5 µM.
Regarding `Brc1ccc(-c2cnc(NCCn3cc(C4CC4)nn3)[nH]2)cc1` [Compound 6], the IC50 was 2 µM in data set [1] (read-out: BIC50); 2.4 µM in data set [1] (setting [5]); > 400 µM with B. cepacia LMG1222T (read-out: BIC50); > 400 µM in the data set with B. cepacia LMG1222T (setting [5]); > 400 µM in the data set with S. epidermidis (read-out: BIC50); > 400 µM with S. epidermidis (setting [5]).
Regarding `CCCCCCCCn1c(-c2ccccc2)cnc1NCC(C)C` [Compound 8a], the “proliferation of OB (trypan blue)” value with osteoblasts (OB) [2] is “slightly reduced”.
With `CCCCCCCCn1c(-c2ccc(Cl)cc2)cnc1NCC(C)C` [Compound 8b], in data set [3], the “survival of MSC allowed” value is listed as “more than 3 weeks” and the “calcium deposition of MSC (normalized by DNA)” value is listed as “induced”. For the same compound, in the data set with osteoblasts (OB) [4], the “survival of OB allowed” value is given as “more than 3 weeks” and the “calcium deposition of OB (normalized by DNA)” value is “induced”.
With `CCCCCCCCn1c(-c2ccc(Br)cc2)cnc1NCC(C)C` [Compound 8c], in data set [3], the “survival of MSC allowed” value was “more than 3 weeks” and the “calcium deposition of MSC (normalized by DNA)” value was “induced”. In addition, in the data set on osteoblasts (OB) [4], the “survival of OB allowed” value is “more than 3 weeks” and the “calcium deposition of OB (normalized by DNA)” value was “induced”. In the data set with osteoblasts (OB) [2], the “proliferation of OB (trypan blue)” value is reported as “increase in proliferation” and the “viability of OB (trypan blue)” value is “very slightly reduced”.
Turning to `CCCCCCCCn1c(-c2ccc(Cl)c(Cl)c2)cnc1NCC(C)C` [Compound 8d], in data set [3], the “survival of MSC allowed” value is on record as “more than 3 weeks” and the “calcium deposition of MSC (normalized by DNA)” value was “none of the compounds at 12.5 μM negatively affected the calcium deposition”. Besides, in the data set on osteoblasts (OB) [4], the “survival of OB allowed” value is on record as “more than 3 weeks” and the “calcium deposition of OB (normalized by DNA)” value is recorded as “none of the compounds at 12.5 μM negatively affected the calcium deposition”. Further, the “proliferation of OB (trypan blue)” value with osteoblasts (OB) [2] was “increase in proliferation”.
`CCCCCCCCn1c(-c2ccccc2)cnc1NC1CCCC1` [Compound 8e]: the “proliferation of OB (trypan blue)” value in the data set on osteoblasts (OB) [2] is “slightly reduced”.
As to `CCCCCCCCn1c(-c2ccc(Br)cc2)cnc1NC1CCCC1` [Compound 8g], in data set [3], the “survival of MSC allowed” value is “more than 3 weeks” and the “calcium deposition of MSC (normalized by DNA)” value was “induced”. Besides, in the data set on osteoblasts (OB) [4], the “survival of OB allowed” value is given as “more than 3 weeks” and the “calcium deposition of OB (normalized by DNA)” value is recorded as “induced”. Besides, the “proliferation of OB (trypan blue)” value with osteoblasts (OB) [2] was “increase in proliferation”.
In the case of `CCCCCCCCn1c(-c2ccc(Cl)c(Cl)c2)cnc1NC1CCCC1` [Compound 8h], in data set [3], the “survival of MSC allowed” value is on record as “more than 3 weeks” and the “calcium deposition of MSC (normalized by DNA)” value is “induced”. Further, in the data set with osteoblasts (OB) [4], the “survival of OB allowed” value is “more than 3 weeks” and the “calcium deposition of OB (normalized by DNA)” value is listed as “induced”. In addition, the “proliferation of OB (trypan blue)” value in the data set on osteoblasts (OB) [2] is listed as “increase in proliferation”.

The values above are taken from publication PMC5075052, “Modulation of the Substitution Pattern of 5-Aryl-2-Aminoimidazoles Allows Fine-Tuning of Their Antibiofilm Activity Spectrum and Toxicity” (Antimicrobial Agents and Chemotherapy, 2016).
